According to patent publication US9771389B2, “Tylosin derivatives and method for preparation thereof” (BAYER ANIMAL HEALTH GMBH, priority 2013, dated 2017):
In brackets after ≈: the same amount, converted by molar mass. Like-named read-outs stand apart in the source and are kept apart here. Values belong to the compound of their own block, whether it stands above or below them.

Assays:
[1] = system: Mannheimia haemolytica, 3 isolates; test: MIC against Mannheimia haemolytica isolates; type: cell-based; settings: Mannheimia haemolytica
Description: (§1) Minimal inhibitory concentrations (MICs) were determined against the most prevalent pathogens in cattle (Mannheimia Haemolytica, 3 isolates) and swine (A. pleuropneumoniae, 6 isolates). In addition the activity of several compounds was tested against two bacterial species, i.e. Mannheimia haemolytica and Actinobacillus pleuropneumoniae, which are considered as the most important bacterial respiratory pathogens in cattle and swine, respectively.

[2] = system: Actinobacillus pleuropneumoniae, 6 isolates; test: MIC against Actinobacillus pleuropneumoniae isolates; type: cell-based
Description: as §1

[3] = system: M. hemolytica KB345 (Tilmicosin-sensitivity strain); test: Paper disc assay, M. hemolytica KB345; type: cell-based, Mannhemia hemolytica; settings: Table 4
Description: (1) Antibacterial activities against Mannheimia and Pasteurella were determined by the following steps: • 1) M. hemolytica KB345 (Tilmicosin-sensitivity strain) and M. hemolytica KB346 (Tilmicosin-low sensitivity strain) were provided. KB 345 strain stored at −80° C. was seeded to BHIB agar medium (10 mL) by using Microbank beads (Pro-Lab) and platinum nail. After statically incubating the KB 345 strain for 24 hours at 37° C., it was seeded to maintaining slant BHIB agar medium (7 mL) by using platinum loop, further statically incubated for 24 hours at 37° C. to obtain slant. One platinum loop of KB 345 strain stored at the slant was inoculated into a large test tube charged with BHIB liquid medium (10 mL) and then incubated for 24 hours at 37° C. with shaking. • 2) A paper disc (ADVANTEC, Φ:6 mm) was impregnated with a solution of test compound and dried under reduced pressure. • 3) To a melted BHIB agar medium was inoculated 1% of the broth obtained from step 1) above to prepare a test plate. After the medium set, the paper disc prepared in step 2) above was put on the plate and it was incubated at 37° C. • 4) After one day, the inhibition zone diameter and clarity (A to E) were determined. For KB346 strain, the same procedures were repeated.

[4] = system: Micrococcus luteus ATCC9341; test: Paper disc assay, Micrococcus luteus; type: cell-based; settings: column 1
Description: (§2) (2) Antibacterial activities against other bacteria were determined with Micrococcus luteus ATCC9341 (1), Bacillus subtilis […] (s), Escherichia coli NIHJ (c), Xanthomonas campestris KB88 (X), Mucor racemosus IFO 4581 (Mu) and Candida albicans ATCC 64548 (Ca).
(§3) Bacillus subtilis ATCC6633 was incubated in Davis synthetic medium and then the seed broth was combined with the medium in the ratio of 1:99 to obtain a test plate. Micrococcus luteus ATCC9341, Escherichia coli NIHJ and Xanthomonas campestris KB88 were respectively incubated in Nutrient agar medium and inoculated at 0.2%, 0.5% and 1.0%. Mucor racemosus IFO 4581 and Candida albicans ATCC 64548 were respectively incubated in GY agar medium and then inoculated at 0.3% and 0.2%.
(§4) A paper disc (ADVANTEC, Φ:6 mm) was impregnated with a solution of test compound and dried under reduced pressure. The paper disc was put on the test plate and it was incubated for 24 hours at 37° C. After incubation, the inhibition zone diameter and clarity (A to E) were determined.

[5] = system: Bacillus subtilis ATCC6633; test: Paper disc assay, Bacillus subtilis; type: cell-based; settings: S
Description: as §2, §3, §4

[6] = system: Xanthomonas campestris KB88; test: Paper disc assay, Xanthomonas campestris; type: cell-based; settings: X
Description: as §2, §3, §4

[7] = 3ISOLATES, 3 Mannheimia haemolytica isolates, broth dilution method, read-out: Range of minimum inhibitory concentrations (MIC)
[8] = 6ISOLATES, 6 Actinobacillus pleuropneumoniae isolates, broth dilution method, read-out: Range of minimum inhibitory concentrations (MIC)

SMILES: CC[C@H]1OC(=O)C[C@@H](O)[C@H](C)[C@@H](O[C@@H]2OC(C)[C@@H](O)C(N(C)C)C2O)[C@@H](CCNCCn2cc(-c3cc(C)c(C)cc3C)nn2)C[C@@H](C)C(=O)/C=C/C(C)=C/[C@@H]1CO (stereo partly shown) [YT723]
MIC [1, 7]: 2 to 8 µg/mL (≈ 2.46 to 9.85 µM)
MIC [2, 8]: 8 µg/mL (≈ 9.85 µM)

SMILES: CCC1OC(=O)CC(O)C(C)C(OC2OC(C)C(O)C(N(C)C)C2O)C(CCn2cc(-c3ccccc3)nn2)CC(C)C(=O)C=CC(C)=CC1CI (stereo not shown) [YT113]
Inhibition zone ([3]; 10 mg/6 mm disk): 11.0 mm
Inhibition zone ([3]; 30 mg/6 mm disk): 18.0 mm
Inhibition zone ([3]; 100 mg/6 mm disk): 19.5 mm

SMILES: CC[C@H]1OC(=O)C[C@@H](O)[C@H](C)[C@@H](O[C@@H]2OC(C)[C@@H](O)C(N(C)C)C2O)[C@@H](CCNCCn2cc(-c3ccccc3)nn2)C[C@@H](C)C(=O)/C=C/C(C)=C/[C@@H]1CO (stereo partly shown) [YT617]
MIC [1, 7]: 2 to 8 µg/mL (≈ 2.6 to 10.4 µM)
MIC [2, 8]: 4 µg/mL (≈ 5.19 µM)

SMILES: CC[C@H]1OC(=O)C[C@@H](O)[C@H](C)[C@@H](O[C@@H]2OC(C)[C@@H](O)C(N(C)C)C2O)[C@@H](CCN(C)Cc2cn(CCNCc3ccccc3)nn2)C[C@@H](C)C(=O)/C=C/C(C)=C/[C@@H]1CO (stereo partly shown) [YT653]
MIC [1, 7]: 1 to 8 µg/mL (≈ 1.21 to 9.67 µM)
MIC [2, 8]: 4 to 8 µg/mL (≈ 4.84 to 9.67 µM)

SMILES: CC[C@H]1OC(=O)C[C@@H](O)[C@H](C)[C@@H](O[C@@H]2OC(C)[C@@H](O)C(N(C)C)C2O)[C@@H](CCn2cc(-c3ccccn3)nn2)C[C@@H](C)C(=O)/C=C/C(C)=C/[C@@H]1CO[C@@H]1OC(C)[C@@H](O)C(OC)C1OC (stereo partly shown) [YT12, 20-(4-(pyridine-2-yl)-1H-1,2,3-triazol-1-yl)-20-deoxodesmycosin]
Inhibition zone ([4]; 0.1 mg/6 mm disc): 12 mm
Inhibition zone ([4]; 1 mg/6 mm disc): 18.5 mm
Inhibition zone ([4]; 10 mg/6 mm disc): 25 mm
Inhibition zone ([5]; 0.1 mg/6 mm disc): 7 mm
Inhibition zone ([5]; 1 mg/6 mm disc): 12.5 mm
Inhibition zone ([5]; 10 mg/6 mm disc): 14 mm
Inhibition zone ([6]; 0.1 mg/6 mm disc): 7 mm
Inhibition zone ([6]; 10 mg/6 mm disc): 27 mm

SMILES: CC[C@H]1OC(=O)C[C@@H](O)[C@H](C)[C@@H](O[C@@H]2OC(C)[C@@H](O)C(N(C)C)C2O)[C@@H](CCN(CCn2cc(-c3cccc(N)c3)nn2)Cc2ccccc2)C[C@@H](C)C(=O)/C=C/C(C)=C/[C@@H]1CO (stereo partly shown) [YT657]
MIC [1, 7]: 2 to 4 µg/mL (≈ 2.29 to 4.57 µM)
MIC [2, 8]: 2 µg/mL (≈ 2.29 µM)

Now from value to compound, other results behind:

MIC [2, 8]: 8 µg/mL (≈ 9.82 µM)
SMILES: CC[C@H]1OC(=O)C[C@@H](O)[C@H](C)[C@@H](O[C@@H]2OC(C)[C@@H](O)C(N(C)C)C2O)[C@@H](CCNCCn2cc(-c3ccccc3[N+](=O)[O-])nn2)C[C@@H](C)C(=O)/C=C/C(C)=C/[C@@H]1CO (stereo partly shown) [YT718]
MIC [1, 7]: 2 to 8 µg/mL (≈ 2.45 to 9.82 µM)

MIC [2, 8]: 8 µg/mL (≈ 8.06 µM)
SMILES: CC[C@H]1OC(=O)C[C@@H](O)[C@H](C)[C@@H](O[C@@H]2OC(C)[C@@H](O)C(N(C)C)C2O)[C@@H](CCN(CCn2cc(-c3ccsc3)nn2)Cc2ccc(I)cc2)C[C@@H](C)C(=O)/C=C/C(C)=C/[C@@H]1CO (stereo partly shown) [YT705]
MIC [1, 7]: 8 µg/mL (≈ 8.06 µM)

MIC ([2]; Actinobacillus pleuropneumoniae, pleuropneumoniae isolate 1, read-out: MICs): > 16 µg/mL
MICs ([2]; pleuropneumoniae isolate 2): >16 µg/mL
MICs ([2]; pleuropneumoniae isolate 3): >16 µg/mL
MICs ([2]; pleuropneumoniae isolate 4): >16 µg/mL
MICs ([2]; pleuropneumoniae isolate 5): >16 µg/mL
MICs ([2]; pleuropneumoniae isolate 6): >16 µg/mL
SMILES: CC[C@H]1OC(=O)C[C@@H](O)[C@H](C)[C@@H](O[C@@H]2OC(C)[C@@H](O)C(N(C)C)C2O)[C@@H](CC=O)C[C@@H](C)C(=O)/C=C/C(C)=C/[C@@H]1Cn1cc(-c2ccc(-c3ccccc3)cc2)nn1 (stereo partly shown) [YT104, 23-(4-biphenyl-1H-1,2,3-triazol-1-yl)-23-Deoxy-5-O-mycaminosyltylonolide]
MIC ([1]; M. haemolytica isolate 1, read-out: MICs): 8 µg/mL (≈ 9.99 µM)
MIC ([1]; M. haemolytica isolate 2, read-out: MICs): 4 µg/mL (≈ 4.99 µM)
MIC ([1]; M. haemolytica isolate 3, read-out: MICs): 8 µg/mL (≈ 9.99 µM)

MIC [2, 8]: 4 µg/mL (≈ 5.14 µM)
SMILES: CC[C@H]1OC(=O)C[C@@H](O)[C@H](C)[C@@H](O[C@@H]2OC(C)[C@@H](O)C(N(C)C)C2O)[C@@H](CCn2cc(-c3cnc4ccccc4c3)nn2)C[C@@H](C)C(=O)/C=C/C(C)=C/[C@@H]1CO (stereo partly shown) [YT733]
MIC [1, 7]: 2 to 4 µg/mL (≈ 2.57 to 5.14 µM)
